Assay results as given in patent publication US8685953B2, “Linear and cyclic guanidine derivatives, method of preparation and uses thereof” (Universita Degli Studi Di Siena, priority 2008, dated 2014).
≈ marks a conversion by molar mass, not a printed value. Counter-ions that a name gives are not always drawn. Like-named read-outs stand apart in the source and are kept apart here.

Experiments:
[1] = system: C. parapsilosis 64E; assay: MIC determination by AFST-EUCAST standard methodology; type: cell-based; conditions: 24 h, visually and spectrophotometrically, read-out: Antifungal activity, expressed as MIC50
Description: (§1) Determination of MICs by AFST-EUCAST Standard Methodology
(§2) Assay medium. The assay medium was RPMI […] without NaHCO3 and with L-glutamine (Sigma Aldrich, Italy), buffered at pH 7.0 with 0.165 M morpholinepropanesulphonic acid (Sigma Aldrich, Italy) and supplemented with 2% (w/v) glucose. The medium, prepared as double-strength solution, was sterilized by filtration and diluted 1:2 (v/v) with the fungal inoculum prepared in sterile distilled water.
(§3) The yeast isolates were grown on Sabouraud dextrose agar (Oxoid, Madrid, Spain) for 48 h at 37° C. before testing. Suspensions were prepared by combining five distinct colonies of each culture of >1 mm diameter. A spectrophotometric procedure for inoculum preparation was used. The final inoculum suspension, prepared in sterile distilled water, contained between 0.5·10^5 and 2.5·10^5 cfu/mL.
(§4) Stock solutions of test compounds were prepared in 100% dimethyl sulfoxide. Stock solutions were prepared as 100× concentration relative to the highest concentration in the antifungal activity test, and frozen at −70° C. until used.
(§5) Sterile plastic micro titration plates containing flat-bottomed wells were used. The plates contained serial dilution of the antifungal agents with a volume of assay medium of 100 μL/well. Two drug-free medium wells were used as sterility and growth controls. The trays were inoculated with 100 μL/well of the final inoculum, with the exception of sterility control wells. The range of concentrations tested for each drug was 1.25-80 μM. The microtitration plates were incubated at 37° C. for 24 h. The minimal inhibitory concentrations (MICs) were determined at 24 h both visually and spectrophotometrically.
(§6) By visual endpoint determination, MICs were determined according to a S-1-R scale, with S (susceptible) indicating an optical clear culture, I (intermediate susceptibility) indicating a slightly hazy culture, and R (resistant) indicating no reduction in turbidity. The MIC50 was defined as the lowest concentration of a drug which correspond to a S culture.
(§7) Microtitration plates were stirred using a microtitration plate shaker before reading to ensure uniform turbidity. MICs were obtained by measuring the absorbance at 450 nm with a microtitration plate reader. The value of the blank was subtracted from reading of the rest of the wells. Two endpoints were defined for each antifungal agent tested, with MIC80 indicating the lowest drug concentration resulting in a reduction of growth of 80% or more (determined spectrophotometrically) compared with the growth of the control, and MIC50 indicating the lowest drug concentration resulting in a reduction in growth of 50% (determined spectrophotometrically) compared with the growth of the control. The MIC50 was also defined as the spectrophotometric endpoint.

[2] = system: C. krusei 193T; assay: as above; type: cell-based; conditions: 24 h, visually and spectrophotometrically, read-out: Antifungal activity, expressed as MIC50
Description: as §1, §2, §3, §4, §5, §6, §7

[3] = system: C. parapsilosis ATCC 34136; assay: as above; type: cell-based; conditions: visually and spectrophotometrically, read-out: Antifungal activity, expressed as MIC50
Description: as §1, §2, §3, §4, §5, §6, §7

[4] = system: C. krusei ATCC 14243; assay: as above; type: cell-based; conditions: visually and spectrophotometrically, read-out: Antifungal activity, expressed as MIC50
Description: as §1, §2, §3, §4, §5, §6, §7

[5] = system: C. glabrata 70E; assay: as above; type: cell-based; conditions: for MIC50: C. glabrata 70E, 24 h, visually and spectrophotometrically, read-out: Antifungal activity, expressed as MIC50
Description: as §1, §2, §3, §4, §5, §6, §7

[6] = system: C. parapsilosis 81E; assay: as above; type: cell-based; conditions: 24 h, visually and spectrophotometrically, read-out: Antifungal activity, expressed as MIC50
Description: as §1, §2, §3, §4, §5, §6, §7

[7] = system: C. tropicalis 86E; assay: as above; type: cell-based; conditions: 24 h, visually and spectrophotometrically, read-out: Antifungal activity, expressed as MIC50
Description: as §1, §2, §3, §4, §5, §6, §7

[8] = system: C. albicans ATCC 60193; assay: as above; type: cell-based, Candida albicans; conditions: visually and spectrophotometrically, read-out: Antifungal activity, expressed as MIC50
Description: as §1, §2, §3, §4, §5, §6, §7

[9] = system: C. albicans 15T; assay: as above; type: cell-based, Candida albicans; conditions: 24 h, visually and spectrophotometrically, read-out: Antifungal activity, expressed as MIC50
Description: as §1, §2, §3, §4, §5, §6, §7

[10] = system: C. albicans 53T; assay: as above; type: cell-based, Candida albicans; conditions: 24 h, visually and spectrophotometrically, read-out: Antifungal activity, expressed as MIC50
Description: as §1, §2, §3, §4, §5, §6, §7

[11] = system: C. albicans 4T; assay: as above; type: cell-based, Candida albicans; conditions: 24 h, visually and spectrophotometrically, read-out: Antifungal activity, expressed as MIC50
Description: as §1, §2, §3, §4, §5, §6, §7

[12] = system: C. parapsilosis; assay: MIC determination, summary over C. parapsilosis; type: cell-based; conditions: Lodderomyces parapsilosis, stated jointly with C. glabrata; read-out: activity toward C. parapsilosis (MIC)
Description: as §1, §2
(§8) The yeast isolates were grown on Sabouraud dextrose agar (Oxoid, Madrid, Spain) for 48 h at 37° C. before testing. Suspensions were prepared by combining five distinct colonies of each culture of >1 mm diameter. […]
(§9) Sterile plastic micro titration plates containing flat-bottomed wells were used. […] The minimal inhibitory concentrations (MICs) were determined at 24 h both visually and spectrophotometrically.
(§10) By visual endpoint determination, MICs were determined according to a S-1-R scale, with S (susceptible) indicating an optical clear culture, I (intermediate susceptibility) indicating a slightly hazy culture, and R (resistant) indicating no reduction in turbidity. […]
(§11) Microtitration plates were stirred using a microtitration plate shaker before reading to ensure uniform turbidity. MICs were obtained by measuring the absorbance at 450 nm with a microtitration plate reader. The value of the blank was subtracted from reading of the rest of the wells. […]

[13] = system: C. albicans; assay: MIC determination, summary over C. albicans strains; type: cell-based; conditions: Candida albicans; text summary over all C. albicans strains; read-out: activity toward C. albicans (MIC)
Description: as §1, §2, §8, §9, §10, §11

[14] = system: C. krusei strains; assay: MIC determination, summary over C. krusei strains; type: cell-based; conditions: Pichia kudriavzevii; text summary over C. krusei strains; read-out: activity toward C. krusei strains (MIC)
Description: as §1, §2, §8, §9, §10, §11

[15] = Lodderomyces parapsilosis, ATCC34136, 24 h
[16] = Pichia kudriavzevii, ATCC14243, 24 h
[17] = Candida albicans, ATCC60193, 24 h

Row | SMILES | MIC50 [1] | MIC50 [2] | MIC50 ([3]; 24 h) | MIC50 ([4]; 24 h) | MIC50 [5] | MIC50 [6] | MIC50 [7] | MIC50 ([8]; 24 h) | MIC50 [9] | MIC50 [10] | MIC50 [11] | MIC50 ([1]; Lodderomyces parapsilosis) | MIC50 ([2]; Pichia kudriavzevii) | MIC50 [3, 15] | MIC50 [4, 16] | MIC50 ([5]; Nakaseomyces glabratus) | MIC50 ([6]; Lodderomyces parapsilosis) | MIC50 ([7]; Candida tropicalis) | MIC50 [8, 17] | MIC50 ([9]; Candida albicans) | also measured
1 | C#CCNC(=N)NCCCCCCCCN1CCCCCCCCNC(=N)NC1=O [Compound 13b] | 40 µM (≈ 16.8 µg/mL) | 40 µM (≈ 16.8 µg/mL) | 40 µM (≈ 16.8 µg/mL) | 80 µM (≈ 33.6 µg/mL) | 80 µM (≈ 33.6 µg/mL) | 80 µM (≈ 33.6 µg/mL) | 5 µM (≈ 2.1 µg/mL) | 2.5 µM (≈ 1.05 µg/mL) | 2.5 µM (≈ 1.05 µg/mL) | 5 µM (≈ 2.1 µg/mL) | 80 µM (≈ 33.6 µg/mL) |  |  |  |  |  |  |  |  |  | 
2 | C=C(C)CNC(=N)NCCCCCCCCN1CCCCCCCCNC(=N)NC1=O [Compound 13e] | >80 µM | 80 µM (≈ 34.9 µg/mL) | >80 µM | 40 µM (≈ 17.4 µg/mL) | 80 µM (≈ 34.9 µg/mL) | >80 µM | 40 µM (≈ 17.4 µg/mL) | 20 µM (≈ 8.71 µg/mL) | 20 µM (≈ 8.71 µg/mL) | 40 µM (≈ 17.4 µg/mL) | 40 µM (≈ 17.4 µg/mL) |  |  |  |  |  |  |  |  |  | 
3 | N=C(N)NCCCCCCCCNCCCCCCCCNC(=N)NCC1CC1 [Compound 12c] | 5 µM (≈ 2.05 µg/mL) | 10 µM (≈ 4.1 µg/mL) | 80 µM (≈ 32.8 µg/mL) | 5 µM (≈ 2.05 µg/mL) | 20 µM (≈ 8.19 µg/mL) | 20 µM (≈ 8.19 µg/mL) | 5 µM (≈ 2.05 µg/mL) | 20 µM (≈ 8.19 µg/mL) | 20 µM (≈ 8.19 µg/mL) | 10 µM (≈ 4.1 µg/mL) | 10 µM (≈ 4.1 µg/mL) |  |  |  |  |  |  |  |  |  | 

Now from value to compound, other results behind:

Row | MIC50 [1] | MIC50 [2] | MIC50 ([3]; 24 h) | MIC50 ([4]; 24 h) | MIC50 [5] | MIC50 [6] | MIC50 [7] | MIC50 ([8]; 24 h) | MIC50 [9] | MIC50 [10] | MIC50 [11] | MIC50 ([1]; Lodderomyces parapsilosis) | MIC50 ([2]; Pichia kudriavzevii) | MIC50 [3, 15] | MIC50 [4, 16] | MIC50 ([5]; Nakaseomyces glabratus) | MIC50 ([6]; Lodderomyces parapsilosis) | MIC50 ([7]; Candida tropicalis) | MIC50 [8, 17] | MIC50 ([9]; Candida albicans) | SMILES | also measured
4 |  |  |  |  |  |  |  |  |  |  |  | 20 µM | 10 µM | 80 µM | 20 µM | 40 µM | 20 µM | 2.5 µM | 2.5 µM | 5 µM | N=C(NCCCCCCCCN1CCCCCCCCNC(=N)NC1=O)NCc1ccccc1 [Compound 15a, 1-[benzyl]-3-[8-(4-imino-2-oxo-1,3,5-triazacyclotridec-1-yl)octyl]guanidine tri trifluoroacetate] | MIC50 ([10]; Candida albicans): 2.5 µM; MIC50 ([11]; Candida albicans): 2.5 µM
5 |  |  |  |  |  |  |  |  |  |  |  | > 80 µM | 20 µM | > 80 µM | 10 µM | 80 µM | 40 µM | 20 µM | 40 µM | 20 µM | CC(C)=CCNC(=N)NCCCCCCCCN1CCCCCCCCNC(=N)NC1=O [Compound 15e, 1-[γ,γ-dimethylallyl]-3-[8-(4-imino-2-oxo-1,3,5-triazacyclotridec-1-yl)octyl]guanidine tri trifluoroacetate] | MIC [12]: 40 to 80 µM; MIC ([5]; Nakaseomyces glabratus, 70E, stated jointly with C. parapsilosis, read-out: activity toward C. glabrata (MIC)): 40 to 80 µM; MIC [13]: 20 to 40 µM; MIC50 ([10]; Candida albicans): 20 µM; MIC50 ([11]; Candida albicans): 20 µM
6 |  |  |  |  |  |  |  |  |  |  |  | 20 µM | 10 µM | > 80 µM | 10 µM | 40 µM | 40 µM | 1.25 µM | 2.5 µM | 2.5 µM | N=C(NCCCCCCCCN1CCCCCCCCNC(=N)NC1=O)NCC1CC1 [Compound 15c, 1-[cyclopropylmethyl]-3-[8-(4-imino-2-oxo-1,3,5-triazacyclotridec-1-yl)octyl]guanidine tri trifluoroacetate] | MIC [13]: 2.5 µM; MIC [14]: 10 µM; MIC50 ([10]; Candida albicans): 2.5 µM; MIC50 ([11]; Candida albicans): 2.5 µM
